# Tests used:
# [1] = system: human Tau; test: Sarkosyl fractionation and Tau immunoblot, hTau-KI primary cortical neurons; format: cell-based; settings: 1 μM, 12 hours, vs DMSO
# Excerpt: (FIG. 5A) Effect of neuroproteasome-specific inhibitor iBEp on Tau aggregation in primary neurons. […] Quantification of soluble and insoluble murine Tau (mTau) intensities normalized to soluble GAPDH. […] (FIG. 5B) Effect of neuroproteasome inhibition on aggregation of human Tau (hTau). […] (FIG. 5C) Generation of reversible neuroproteasome inhibitors to test effects of neuroproteasome inhibition. (Top) Structure of Sulfo-MG132 (SulfoMG). […] (FIG. 5D) Effect of reversible neuroproteasome inhibition using SulfoMG on Tau aggregation. […] Quantification of soluble and insoluble Tau intensities were normalized to soluble GAPDH. Data (right) are mean±SEM normalized respective to DMSO controls. […] (FIG. 5E) Testing iBEp permeability in vivo. […] 72 hours post injection, hippocampi were isolated and subjected to membrane fractionation without detergent. […] (FIG. 5F) Effect of neuroproteasome inhibition on Tau aggregation in vivo.
# [2] = molecular target: proteasome (Homo sapiens, UniProt P28072+P28074+Q99436); test: Efficacy against the proteasome relative to the parent inhibitor; format: biochemical
# Excerpt: We next tested the potency and selectivity of iBEp relative to Epoxomicin. Epoxomicin covalently and irreversibly binds the catalytic β subunits of the proteasome-therefore, the biotin moiety on iBEp serves as a tracer to detect whether proteasomes are inhibited by monitoring biotin signal on an SDS-PAGE gel (83, 87-89). […] This is supported by previous data that modification of the non-reactive end of epoxomicin has been shown not to change the selectivity of Epoxomicin for the proteasome (83, 87-89). […] We therefore chose doses of inhibitor where the effective concentration of the inhibitor was similar to previous studies using Epoxomicin alone and well within the acceptable range of efficacy given how potent Epoxomicin is as a proteasome inhibitor.
# Many of our experiments rely on the use of iBEp because the biotin tracer on an irreversible and specific inhibitor allows us to track which proteasomes are inhibited. However, we wanted to validate our findings using a proteasome inhibitor with a distinct mechanism of action from Epoxomicin. We therefore modified MG132, a reversible peptide aldehyde proteasome inhibitor, with a sulfonated biotin linker on the nonreactive N-terminus (84). […] Instead, we turned to cellular and functional readouts of permeability. […]
substance,measurement,setting,value
Sulfo-MG132 [SulfoMG],"sarkosyl-insoluble Tau, hTau-KI neurons",[1],induces similar partitioning of hTau into the sarkosyl-insoluble fraction as iBEp
same,efficacy against the proteasome relative to the parent inhibitor,[2],significant inhibition of proteasomes using SulfoMG despite the moderate loss of efficacy compared to MG132

# — patent publication US20250281564A1, “DYSREGULATION OF NEUROPROTEASOMES BY APOE ISOFORMS DRIVES ENDOGENOUS TAU AGGREGATION” (The Trustees of Columbia University in the City of New York, priority 2022, published 2025)
